Measured values reported in ChEMBL document CHEMBL5233249, “Recent advancements in the development of heterocyclic anti-inflammatory agents” (Eur J Med Chem, 2020).
Values after ≈ are worked out from the molar mass of the structure shown.

Experiments:
[1] = Cytotoxicity against mouse RAW264.7 cells assessed as decreased cell viability measured after 24 hrs by MTT assay; assay type: toxicity, cell-based
RAW264.7 [2] = assay: Anti-inflammatory activity in mouse RAW264.7 cells assessed as inhibition of LPS-induced reduction in TNFalpha production; assay type: functional, cell-based
BV-2 = assay: Antineuroinflammatory activity against mouse BV-2 cells assessed as inhibition of LPS-induced NO production by Griess assay relative to control; assay type: functional; parameters: scale not given: the % may be the effect or the level left
RAW264.7 [3] = assay: Anti-inflammatory activity in mouse RAW264.7 cells assessed as inhibition of LPS-induced TNFalpha production measured after 24 hrs by EIA method relative to control; assay type: functional; parameters: scale not given: the % may be the effect or the level left
Rattus norvegicus [4] = assay: Anti-inflammatory activity in Carrageenan-induced paw edema in Wistar albino rat assessed as inhibition of paw edema measured after 6 hr relative to control; assay type: functional
RAW264.7 [5] = assay: Anti-inflammatory activity in mouse RAW264.7 cells assessed as decreased production of LPS-induced IL-1beta production; assay type: functional
Rattus norvegicus [6] = assay: Anti-inflammatory activity in Carrageenan-induced paw edema in Wistar albino rat assessed as inhibition of paw edema measured after 3 hr relative to control; assay type: functional
[7] = target: T1, Prostaglandin G/H synthase 2 (Homo sapiens, UniProt P35354); assay: Inhibition of COX-2 (unknown origin) at 0.1 uM
T1 sequence (P35354 whole entry): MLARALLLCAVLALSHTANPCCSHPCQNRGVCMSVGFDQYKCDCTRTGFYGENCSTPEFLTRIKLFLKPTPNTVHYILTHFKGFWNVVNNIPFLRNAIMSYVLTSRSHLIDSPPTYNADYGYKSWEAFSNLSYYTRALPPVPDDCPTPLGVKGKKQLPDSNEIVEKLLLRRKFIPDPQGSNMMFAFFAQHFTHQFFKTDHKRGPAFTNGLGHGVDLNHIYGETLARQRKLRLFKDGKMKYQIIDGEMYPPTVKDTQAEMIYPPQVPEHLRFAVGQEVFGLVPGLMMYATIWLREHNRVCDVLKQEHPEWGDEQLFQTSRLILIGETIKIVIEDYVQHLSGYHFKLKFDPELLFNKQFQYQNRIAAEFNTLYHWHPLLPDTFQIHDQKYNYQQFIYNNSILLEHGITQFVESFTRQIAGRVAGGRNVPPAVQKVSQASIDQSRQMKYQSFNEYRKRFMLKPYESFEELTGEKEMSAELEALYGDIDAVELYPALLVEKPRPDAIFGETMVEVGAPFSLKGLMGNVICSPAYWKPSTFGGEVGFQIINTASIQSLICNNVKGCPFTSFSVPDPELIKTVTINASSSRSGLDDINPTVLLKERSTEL

Rattus norvegicus [8] = assay: Anti-inflammatory activity in Carrageenan-induced paw edema in Wistar albino rat assessed as inhibition of paw edema measured after 1 hr relative to control; assay type: functional
RAW264.7 [9] = assay: Anti-inflammatory activity in mouse RAW264.7 cells assessed as decreased production of LPS-induced IL-6 production; assay type: functional
RAW264.7 [10] = assay: Anti-inflammatory activity in mouse RAW264.7 cells assessed as decreased production of LPS-induced TNFalpha production; assay type: functional; conditions: read-out: ED50 (the source's name)

SMILES	CC50 at 24 h [1] [µM]	IC50 (RAW264.7 [2]) [µM]	Activity (BV-2) [%]	Activity (RAW264.7 [3]) [%]	inhibition (INH) (Rattus norvegicus [4]) [%]	Activity (RAW264.7 [5]) [ng/mL]	inhibition (INH) (Rattus norvegicus [6]) [%]	IC50 [7] [µM]	inhibition (INH) (Rattus norvegicus [8]) [%]	Activity (RAW264.7 [9]) [ng/mL]	EC50 (RAW264.7 [10]) [µg/mL]
CCc1ccc(C/C=C2\CCOc3cc(OC)cc(OC)c3C2=O)cc1	43.6	5.2	87.9	96.4							
COc1ccc(C2=NNC(S)C2N(CN2C(=O)/C(=C\c3nnc(-c4ccc(-c5ccc(OC)cc5)cc4)s3)c3ccccc32)C(=O)c2ccccc2)cc1 (stereo unspecified)					57.14	35.1	52.63	53.1	50	102.1	0.0559 (≈ 0.0744 µM)
